Common to all, as to assay type: toxicity, cell-based
Data set [1] concerns HEK-293T. Description: Incucyte cell viability with HEK293T. Particulars: human, 10 µM, compound concentration 10 uM.
Data set [2] has as its system Fibroblast. Description: Incucyte cell viability with human fibroblast. Particulars: 10 µM, compound concentration 10 uM.
Data set [3] relates to U2OS. Description: Incucyte cell viability with U2OS. The settings on record: human, 10 µM, compound concentration 10 uM.
The mark [4] stands for this setting: 0 h, replicate number 1, timepoint 0 hours.
Where [5] appears, read: 6 h, replicate number 1, timepoint 6 hours.
Where [6] appears, read: 6 h, replicate number 2, timepoint 6 hours.
Setting [7] is: 12 h, replicate number 1, timepoint 12 hours.
[8] abbreviates: 12 h, replicate number 2, timepoint 12 hours.
[9] abbreviates: 18 h, replicate number 1, timepoint 18 hours.
The mark [10] stands for this setting: 24 h, replicate number 1, timepoint 24 hours.
[11] abbreviates: 0 h, replicate number 2, timepoint 0 hours.
Setting [12] is: 18 h, replicate number 2, timepoint 18 hours.
Setting [13] is: 24 h, replicate number 2, timepoint 24 hours.
Note: filed as whole numbers so only -1 and 0 and 1 occur.

Take `Cc1nc2sccn2c(=O)c1CCN1CCC(=C(c2ccc(F)cc2)c2ccc(F)cc2)CC1` [RITANSERIN]: the “Growth Rate” value in data set [1] (setting [4]) turned out to be 0; in data set [1] (setting [5]) it was 1; in data set [1] (setting [6]), 0; in data set [1] (setting [7]) it was 1; in data set [1] (setting [8]), 0; in data set [1] (setting [9]), 0. For the same compound, the “Growth Rate” value in data set [1] (setting [10]), in data set [2] (setting [4]), in data set [2] (setting [5]), in data set [2] (setting [7]), in data set [2] (setting [9]) and in data set [2] (setting [10]) was 0 each time. Besides, the “Growth Rate” value came out at 1 in data set [3] (setting [4]); 0 in data set [3] (setting [11]); 1 in data set [3] (setting [7]); 1 in data set [3] (setting [9]); 1 in data set [3] (setting [10]).
Regarding `C[C@@H]1CCc2ncc(F)cc2[C@H]2CCCN2c2ccn3ncc(c3n2)C(=O)N1` [SELITRECTINIB], the “Growth Rate” value is 0 in data set [1] (setting [4]); 1 in data set [1] (setting [11]); 0 in data set [1] (setting [5]); 0 in data set [1] (setting [7]); 0 in data set [1] (setting [9]); 1 in data set [1] (setting [12]). Also, the “Growth Rate” value came out at 0 in data set [1] (setting [10]); 0 in data set [2] (setting [11]); 1 in data set [2] (setting [5]); 0 in data set [2] (setting [6]); 1 in data set [2] (setting [7]); 0 in data set [2] (setting [8]). The “Growth Rate” value is 1 in data set [2] (setting [9]); 0 in data set [2] (setting [12]); 1 in data set [2] (setting [10]); 0 in data set [2] (setting [13]); 1 in data set [3] (setting [4]); 0 in data set [3] (setting [5]). The “Growth Rate” value in data set [3] (setting [7]) was found to be 1; in data set [3] (setting [8]), 0; in data set [3] (setting [9]) it was 0; in data set [3] (setting [10]), 1; in data set [3] (setting [13]) it was 0.
As to `COc1cccc(CNC(=O)c2nc3scc(CN(C)Cc4ccccc4)c3c(=O)[nH]2)c1` [T-26f], the “Growth Rate” value in data set [1] (setting [4]) came to 0; in data set [1] (setting [11]), 1; in data set [2] (setting [4]), 0; in data set [2] (setting [5]), 0; in data set [2] (setting [7]) it was 0; in data set [2] (setting [8]), 1. For the same compound, the “Growth Rate” value in data set [2] (setting [9]) was 0; in data set [2] (setting [12]), 1; in data set [2] (setting [10]), 0; in data set [2] (setting [13]), 1; in data set [3] (setting [4]) it was 0; in data set [3] (setting [5]), 1. Moreover, the “Growth Rate” value in data set [3] (setting [7]) turned out to be 1; in data set [3] (setting [9]) it was 1; in data set [3] (setting [12]) it was 0; in data set [3] (setting [10]) it was 1.
Regarding `CC(C)CC(=O)N1CCc2nc(-c3ccc(Br)cc3)nc(N(C)Cc3ccccc3)c2C1` [THPP-1-NC], the “Growth Rate” value is recorded as 0 in data set [1] (setting [4]); 1 in data set [1] (setting [11]); 0 in data set [1] (setting [6]); 0 in data set [1] (setting [8]); 1 in data set [1] (setting [12]); 1 in data set [1] (setting [10]). For the same compound, the “Growth Rate” value came out at 0 in data set [1] (setting [13]); 0 in data set [2] (setting [11]); 1 in data set [2] (setting [5]); 0 in data set [2] (setting [6]); 0 in data set [2] (setting [7]); 1 in data set [2] (setting [9]). For the same compound, the “Growth Rate” value in data set [2] (setting [12]) stood at 0; in data set [2] (setting [10]), 1; in data set [2] (setting [13]) it was 0; in data set [3] (setting [4]), 0; in data set [3] (setting [5]), 1; in data set [3] (setting [6]) it was 0. Further, the “Growth Rate” value came to 0 in data set [3] (setting [7]), 0 in data set [3] (setting [9]), 1 in data set [3] (setting [12]) and 0 in data set [3] (setting [10]).
With `Cc1cnc(-c2cc(Cl)ccc2F)cc1-n1c(=O)n(CC(N)=O)c2cnccc21` [TP-008], the “Growth Rate” value in data set [1] (setting [4]) was determined as 0; in data set [1] (setting [11]), 1; in data set [1] (setting [6]) it was 1; in data set [1] (setting [8]) it was 1; in data set [1] (setting [13]), 1; in data set [2] (setting [11]), 0. The “Growth Rate” value is 1 in data set [2] (setting [5]); 0 in data set [2] (setting [7]); 1 in data set [2] (setting [8]); 0 in data set [2] (setting [9]); 1 in data set [2] (setting [12]); 1 in data set [2] (setting [10]). Further, the “Growth Rate” value in data set [2] (setting [13]) worked out at 0; in data set [3] (setting [11]), 0; in data set [3] (setting [5]), 1; in data set [3] (setting [7]), 0; in data set [3] (setting [8]), 1; in data set [3] (setting [9]), 0. In addition, the “Growth Rate” value in data set [3] (setting [12]) and in data set [3] (setting [10]) was 1 throughout.
Take `N#Cc1ccc(Nc2ccc3[nH]c(=O)[nH]c3c2)c(Cl)c1` [TP-021n]: the “Growth Rate” value was found to be 0 in data set [1] (setting [4]); 1 in data set [1] (setting [11]); 1 in data set [1] (setting [13]); 1 in data set [2] (setting [11]); 0 in data set [2] (setting [5]); 0 in data set [2] (setting [7]). The “Growth Rate” value in data set [2] (setting [9]) came to 0; in data set [2] (setting [12]), 1; in data set [2] (setting [10]), 0; in data set [3] (setting [4]), 1; in data set [3] (setting [11]), 0; in data set [3] (setting [5]) it was 0. Besides, the “Growth Rate” value in data set [3] (setting [7]) came to 0; in data set [3] (setting [9]) it was 0; in data set [3] (setting [12]), 1; in data set [3] (setting [10]) it was 0.
With `CN1C(=O)[C@@H](N2CCc3c(nn(Cc4ccccc4)c3Br)C2=O)COc2ccccc21` [TP-030-2], the “Growth Rate” value in data set [1] (setting [4]) is listed as 0; in data set [1] (setting [11]), 1; in data set [1] (setting [6]) it was 0; in data set [1] (setting [8]), 0; in data set [1] (setting [9]), 1; in data set [1] (setting [10]), 1. Also, the “Growth Rate” value in data set [1] (setting [13]), in data set [2] (setting [5]), in data set [2] (setting [7]), in data set [2] (setting [9]), in data set [2] (setting [10]) and in data set [3] (setting [4]) was 0 throughout. In addition, the “Growth Rate” value is reported as 0 in data set [3] (setting [5]); 1 in data set [3] (setting [6]); 0 in data set [3] (setting [7]); 1 in data set [3] (setting [8]); 0 in data set [3] (setting [9]); 1 in data set [3] (setting [12]). Moreover, the “Growth Rate” value in data set [3] (setting [10]) is given as 0; in data set [3] (setting [13]), 1.
Take `CC(C)Oc1ccc(-c2nn([C@@H](C)c3oc4ccc(F)cc4c(=O)c3-c3cccc(F)c3)c3ncnc(N)c23)cc1F` [UMBRALISIB]: the “Growth Rate” value in data set [1] (setting [4]) came to 1; in data set [1] (setting [11]), 0; in data set [1] (setting [5]) it was 0; in data set [1] (setting [7]), 0; in data set [1] (setting [9]) it was 0; in data set [1] (setting [10]), 0. Moreover, the “Growth Rate” value was 1 in data set [2] (setting [5]); 0 in data set [2] (setting [6]); 1 in data set [2] (setting [7]); 0 in data set [2] (setting [8]); 1 in data set [2] (setting [9]); 1 in data set [2] (setting [10]). Also, the “Growth Rate” value was 0 in data set [3] (setting [4]); 0 in data set [3] (setting [5]); 1 in data set [3] (setting [6]); 0 in data set [3] (setting [7]); 1 in data set [3] (setting [8]); 0 in data set [3] (setting [9]). Besides, the figures for the “Growth Rate” value in data set [3] (setting [12]), in data set [3] (setting [10]) and in data set [3] (setting [13]) were 1, 0 and 1, respectively.
